Earlier results, collected in patent US20240148879A1, “GLP-1R, GIP-R AND/OR GCGR AGONISTS, FORMULATIONS, AND METHODS OF USE” (Spitfire Pharma LLC, priority 2021, published 2024).
Bridge positions count the residues as written; N and C are the ends. Ends that are not written are not given here.

What was measured:
[1] = 12 weeks

Compound	reduction in liver fat content (6 weeks)	NASH-related alanine aminotransferase (ALT) reduction (compared with liraglutide alone)	degree of weight loss (over 26 weeks of administration)	reduction in body weight [1]
CCCCCCCCCCCCCCCC(=O)N[C@@H](CCC(=O)NCCCC[C@H](NC(=O)[C@H](CC(=O)O)NC(=O)[C@H](CO)NC(=O)[C@@H](NC(=O)[C@H](Cc1ccccc1)NC(=O)[C@@H](NC(=O)CNC(=O)[C@H](CCC(N)=O)NC(=O)[C@H](CO)NC(=O)[C@@H](N)Cc1c[nH]cn1)[C@@H](C)O)[C@@H](C)O)C(=O)N[C@@H](CO)C(=O)N[C@@H](CCC(=O)O)C(=O)N[C@@H](Cc1ccc(O)cc1)C(=O)N[C@@H](CC(C)C)C(=O)N[C@@H](CC(=O)O)C(=O)N[C@@H](CO)C(=O)N[C@@H](CCC(=O)O)C(=O)N[C@@H](CCCNC(=N)N)C(=O)N[C@@H](C)C(=O)N[C@@H](CCCNC(=N)N)C(=O)N[C@@H](CC(=O)O)C(=O)N[C@@H](Cc1ccccc1)C(=O)N[C@H](C(=O)N[C@@H](C)C(=O)N[C@@H](Cc1c[nH]c2ccccc12)C(=O)N[C@@H](CC(C)C)C(=O)N[C@@H](CCC(=O)O)C(=O)N[C@@H](C)C(=O)NCC(=O)NCC(=O)O)C(C)C)C(=O)O [cotadutide]	39%	greater improvement	5.4%	
JNJ 64565111: a balanced dual agonist (HAQGTFTSDYSKYLDEKRAKEFVQWLMNTX; lactam 16-20; X not resolved here; also: Fc carrier conjugate)				8%
